Values of other authors in PubChem BioAssay AID1259409 (Chemical Carcinogenesis Research Information System (CCRIS), 2018).

Test system: rodent chemically induced tumor inhibition, incidence and multiplicity
Assay: CCRIS tumor inhibitor studies

In the case of `COc1ccc2nc(S(=O)Cc3ncc(C)c(OC)c3C)[nH]c2c1` (stereo not drawn), the “tumour outcome (control, treated, inhibition, significance)” value (Carcinogen: AZOXYMETHANE, 25843-45-2, Dose [Inhibitor]: 0, 40 UMOL/KG 1/D FOR 27 WK BEGINNING 6 WK PRIOR TO CARCINOGEN TREATMENT (STUDY DURATION: 27 WK), Route [Inhibitor]: GAVAGE, Species: RAT, Strain/Sex: SPRAGUE-DAWLEY/FEMALE, Target Tissue: Type of Lesion: COLON: TUMOR, Dose [Carcinogen]: 10 MG/KG 1/WK FOR 12 WK, Promoter: NONE USED) is given as 19/20 (95%), 12/19 (63%), 34%, p<0.02.

For `C[C@]12CCC(=O)C(O)=C1CC[C@@H]1[C@@H]2CC[C@]2(C)C(=O)CC[C@@H]12`, the “tumour outcome (control, treated, inhibition, significance)” value (Carcinogen: METHYLNITROSOUREA, 684-93-5, Dose [Inhibitor]: 0, 6 MG/D 7 D/WK FOR DURATION OF STUDY BEGINNING 1 WK PRIOR TO CARCINOGEN DOSE (STUDY DURATION: 107 D), Route [Inhibitor]: GAVAGE, Species: RAT, Strain/Sex: SPRAGUE-DAWLEY/FEMALE, Target Tissue: Type of Lesion: MAMMARY GLAND: TUMOR, Dose [Carcinogen]: 50 MG/KG BW ONCE, Promoter: NONE USED) is given as 100%, 95%, 5%, not significant and the “tumour outcome (control, treated, inhibition, significance)” value (Carcinogen: METHYLNITROSOUREA, 684-93-5, Dose [Inhibitor]: 0, 15 MG/D 7 D/WK FOR DURATION OF STUDY BEGINNING 1 WK PRIOR TO CARCINOGEN DOSE (STUDY DURATION: 107 D), Route [Inhibitor]: GAVAGE, Species: RAT, Strain/Sex: SPRAGUE-DAWLEY/FEMALE, Target Tissue: Type of Lesion: MAMMARY GLAND: TUMOR, Dose [Carcinogen]: 50 MG/KG BW ONCE, Promoter: NONE USED) is given as 100%, 100%, 0%, not significant.

In the case of `O=C1CC(C(=O)O)C(C(=O)O)O1` (stereo not drawn), the “tumour outcome (control, treated, inhibition, significance)” value (Carcinogen: BENZO[A]PYRENE, 50-32-8, Dose [Inhibitor]: 0.034 MMOL/G IN DIET FOR 5 WK BEGINNING 1 WK PRIOR TO FIRST CARCINOGEN DOSE AND CONTINUING FOR 3 D POST LAST CARCINOGEN, Route [Inhibitor]: ORAL, Species: MOUSE, Strain/Sex: ICR/HA/FEMALE, Target Tissue: Type of Lesion: FORESTOMACH: TUMOR, Dose [Carcinogen]: 1 MG IN 0.2 ML CORN OIL 2/WK FOR 4 WK STARTING, Promoter: NONE USED) is given as 100%, 100%, 0%, not significant.

For `C[C@]12CC[C@@H]3c4ccc(O)cc4CC[C@H]3[C@@H]1CC[C@@H]2O`, the “tumour outcome (control, treated, inhibition, significance)” value (Carcinogen: DIETHYLNITROSAMINE, 55-18-5, Dose [Inhibitor]: 0, 0.5-1 MG IN PELLET IMPLANTED 1/MONTH FOR 26 WK BEGINNING 30 D POST CARCINOGEN TREATMENT. DOSING BEGAN SAME DAY OF ORC, Route [Inhibitor]: SUBCUTANEOUS, Species: MOUSE, Strain/Sex: B6C3F1/MALE, Target Tissue: Type of Lesion: LIVER: TUMOR, Dose [Carcinogen]: 2.5 UG/G BW IN SALINE ONCE, Promoter: NONE) is given as 19/30 (63%), 6/23 (26%), 59%, not significant, the “tumour outcome (control, treated, inhibition, significance)” value (Carcinogen: N-ETHYL-N-NITROSOUREA, 759-73-9, Dose [Inhibitor]: 0, 0.1 MG PELLET IMPLANTED WITHIN 24 HR OF BIRTH AND REPLACED EVERY 2 MO (STUDY DURATION: 8 MO), Route [Inhibitor]: SUBCUTANEOUS IMPLANT, Species: RAT, Strain/Sex: WF X LE F1/FEMALE, Target Tissue: Type of Lesion: TRIGEMINAL NERVE: SCHWANNOMA, Dose [Carcinogen]: 40 MG/KG ONCE WITHIN 24 HR OF BIRTH, Promoter: NONE USED) is given as 14/19 (74%), 12/20 (60%), 19%, not calculated and the outcome (Carcinogen: N-ETHYL-N-NITROSOUREA, 759-73-9, Dose [Inhibitor]: 0, 0.1 MG PELLET IMPLANTED WITHIN 24 HR OF BIRTH AND REPLACED EVERY 2 MO (STUDY DURATION: 8 MO), Route [Inhibitor]: SUBCUTANEOUS IMPLANT, Species: RAT, Strain/Sex: WF X LE F1/MALE, Target Tissue: Type of Lesion: KIDNEY: TUMOR, Dose [Carcinogen]: 40 MG/KG ONCE WITHIN 24 HR OF BIRTH, Promoter: NONE USED) is given as 0/21 (0%), 7/22 (32%), -100%, not calculated. The “tumour outcome (control, treated, inhibition, significance)” value (Carcinogen: N-ETHYL-N-NITROSOUREA, 759-73-9, Dose [Inhibitor]: 0, 0.1 MG PELLET IMPLANTED WITHIN 24 HR OF BIRTH AND REPLACED EVERY 2 MO (STUDY DURATION: 8 MO), Route [Inhibitor]: SUBCUTANEOUS IMPLANT, Species: RAT, Strain/Sex: WF X LE F1/MALE, Target Tissue: Type of Lesion: TRIGEMINAL NERVE: SCHWANNOMA, Dose [Carcinogen]: 40 MG/KG ONCE WITHIN 24 HR OF BIRTH, Promoter: NONE USED) was 19/21 (91%), 13/22 (59%), 35%, p<0.05, the “tumour outcome (control, treated, inhibition, significance)” value (Carcinogen: N-METHYL-N-NITROSOUREA, 684-93-5, Dose [Inhibitor]: 0, 2.5 MG IN CHOLESTEROL PELLET IMPLANTED 2 WK PRIOR TO CARCINOGEN DOSE AND REPLACED EVERY 4 WK (STUDY DURATION: 36 WK), Route [Inhibitor]: SUBCUTANEOUS IMPLANT, Species: RAT, Strain/Sex: F344/FEMALE, Target Tissue: Type of Lesion: MAMMARY GLAND: CARCINOMA, Dose [Carcinogen]: 50 MG/KG BW ONCE, Promoter: NONE USED) was 10/20 (50%), 1/28 (4%), 92%, p<0.01 and the “tumour outcome (control, treated, inhibition, significance)” value (Carcinogen: N-METHYL-N-NITROSOUREA, 684-93-5, Dose [Inhibitor]: 0, 2.5 MG IN CHOLESTEROL PELLET IMPLANTED AT TIME OF CARCINOGEN DOSE AND REPLACED EVERY 4 WK (STUDY DURATION: 35 WK), Route [Inhibitor]: SUBCUTANEOUS IMPLANT, Species: RAT, Strain/Sex: F344/MALE, Target Tissue: Type of Lesion: MAMMARY GLAND: CARCINOMA, Dose [Carcinogen]: 50 MG/KG BW ONCE, Promoter: NONE USED) was 10?20 (50%), 7/16 (44%), 12%, not significant. For the same compound, the “tumour outcome (control, treated, inhibition, significance)” value (Carcinogen: N-METHYL-N-NITROSOUREA, 684-93-5, Dose [Inhibitor]: 0, 20 UG IN SILASTIC CAPSULES FOR 3 WK IMPLANTED 2 WK POST CARCINOGEN TREATMENT (STUDY DURATION: 10 MO), Route [Inhibitor]: SUBCUTANEOUS, Species: RAT, Strain/Sex: LEWIS/FEMALE, Target Tissue: Type of Lesion: MAMMARY GLAND: TUMOR, Dose [Carcinogen]: 50 MG/KG BW ONCE AT 7 WK OF AGE) was 11/11 (100%), 8/11 (73%), 27%, not significant, the “tumour outcome (control, treated, inhibition, significance)” value (Carcinogen: N-METHYL-N-NITROSOUREA, 684-93-5, Dose [Inhibitor]: 0, 30 MG IN SILASTIC CAPSULES FOR 3 WK IMPLANTED 2 WK POST CARCINOGEN TREATMENT (STUDY DURATION: 10 MO), Route [Inhibitor]: SUBCUTANEOUS, Species: RAT, Strain/Sex: LEWIS/FEMALE, Target Tissue: Type of Lesion: MAMMARY GLAND: TUMOR, Dose [Carcinogen]: 50 MG/KG BW ONCE AT 7 WK OF AGE) was 11/11 (100%), 2/12 (17%), 83%, p<0.001 and the “tumour outcome (control, treated, inhibition, significance)” value (Carcinogen: N-METHYL-N-NITROSOUREA, 684-93-5, Dose [Inhibitor]: 0, 100 UG IN SILASTIC CAPSULES FOR 2 WK IMPLANTED 2 WK POST CARCINOGEN TREATMENT (STUDY DURATION: 10 MO), Route [Inhibitor]: SUBCUTANEOUS, Species: RAT, Strain/Sex: LEWIS/FEMALE, Target Tissue: Type of Lesion: MAMMARY GLAND: TUMOR, Dose [Carcinogen]: 50 MG/KG BW ONCE AT 7 WK OF AGE) was 13/15 (87%), 7/16 (44%), 49%, p<0.05. For the same compound, the “tumour outcome (control, treated, inhibition, significance)” value (Carcinogen: N-METHYL-N-NITROSOUREA, 684-93-5, Dose [Inhibitor]: 0, 100 UG IN SILASTIC CAPSULES FOR 3 WK IMPLANTED 2 WK POST CARCINOGEN TREATMENT (STUDY DURATION: 10 MO), Route [Inhibitor]: SUBCUTANEOUS, Species: RAT, Strain/Sex: LEWIS/FEMALE, Target Tissue: Type of Lesion: MAMMARY GLAND: TUMOR, Dose [Carcinogen]: 50 MG/KG BW ONCE AT 7 WK OF AGE) was 11/11 (100%), 2/12 (17%), 83%, p<0.001, the “tumour outcome (control, treated, inhibition, significance)” value (Carcinogen: N-METHYL-N-NITROSOUREA, 684-93-5, Dose [Inhibitor]: 0, 200 UG IN SILASTIC CAPSULES FOR 1 WK IMPLANTED 2 WK POST CARCINOGEN TREATMENT (STUDY DURATION: 10 MO), Route [Inhibitor]: SUBCUTANEOUS, Species: RAT, Strain/Sex: LEWIS/FEMALE, Target Tissue: Type of Lesion: MAMMARY GLAND: TUMOR, Dose [Carcinogen]: 50 MG/KG BW ONCE AT 7 WK OF AGE) was 13/15 (87%), 3/15 (20%), 77%, p<0.01 and the “tumour outcome (control, treated, inhibition, significance)” value (Carcinogen: N-METHYL-N-NITROSOUREA, 684-93-5, Dose [Inhibitor]: 0, 200 UG IN SILASTIC CAPSULES FOR 3 WK IMPLANTED 2 WK POST CARCINOGEN TREATMENT (STUDY DURATION: 10 MO), Route [Inhibitor]: SUBCUTANEOUS, Species: RAT, Strain/Sex: LEWIS/FEMALE, Target Tissue: Type of Lesion: MAMMARY GLAND: TUMOR, Dose [Carcinogen]: 50 MG/KG BW ONCE AT 7 WK OF AGE) was 11/11 (100%), 2/12 (17%), 83%, p<0.001.

For `S=C=NC(Cc1ccccc1)c1ccccc1` (stereo not drawn), the “tumour outcome (control, treated, inhibition, significance)” value (Carcinogen: 4-(METHYLNITROSAMINO)-1-(3-PYRIDYL)-1-BUTANONE, 64091-91-4, Dose [Inhibitor]: 0, 1 UMOL ONCE 2 HR PRIOR TO CARCINOGEN DOSE (STUDY DURATION: 16 WK), Route [Inhibitor]: GAVAGE, Species: MOUSE, Strain/Sex: STRAIN-A/FEMALE, Target Tissue: Type of Lesion: LUNG: ADENOMA, Dose [Carcinogen]: 10 UMOL IN 0.1 ML SALINE ONCE, Promoter: NONE USED) is listed as 100%, 60%, 40%, p<0.05 and the “tumour outcome (control, treated, inhibition, significance)” value (Carcinogen: 4-(METHYLNITROSAMINO)-1-(3-PYRIDYL)-1-BUTANONE, 64091-91-4, Dose [Inhibitor]: 0, 5 UMOL ONCE 2 HR PRIOR TO CARCINOGEN DOSE (STUDY DURATION: 16 WK), Route [Inhibitor]: GAVAGE, Species: MOUSE, Strain/Sex: STRAIN-A/FEMALE, Target Tissue: Type of Lesion: LUNG: ADENOMA, Dose [Carcinogen]: 10 UMOL IN 0.1 ML SALINE ONCE, Promoter: NONE USED) is listed as 100%, 45%, 55%, p<0.05.
